Test [1] relates to A549 human lung carcinoma xenograft. In words: A549 FP3 xenograft tumor growth inhibition, with or without docetaxel. It counts as in vivo, mouse. As to conditions: QDx1, Ab095 8 IP, docetaxel 7.5 IV, ADC 10 mg/kg/day IP. The method, then:
(§1) The cell lines A549 and NCI-H460 were obtained from the American Type Culture Collection (ATCC, Manassas, Va.). A549 cell line was further passaged in mice as flank xenograft to improve xenograft tumor growth, resulting in the A549-FP3 line. Cells were cultured as monolayers in RPMI-1640 culture media (Invitrogen, Carlsbad, Calif.) supplemented with 10% Fetal Bovine Serum (FBS, Hyclone, Logan, Utah). To generate xenografts, 5×10^6 (A549 and NCI-H460) viable cells were inoculated subcutaneously into the right flank of immune deficient female SCID-bg mice (Charles River Laboratories, Wilmington, Mass.). The injection volume was 0.2 ml and composed of 1:1 S-MEM:Matrigel Matrigel (BD, Franklin Lakes, N.J.). Tumors were size matched at approximately 223 mm^3. […] Measurements of the length (L) and width (W) of the tumor were taken via electronic caliper and the volume was calculated according to the following equation: V=L×W^2/2. […]
(§2) To refer to efficacy of therapeutic agents, parameters of amplitude (TGI.), durability (TGD) are used. […] Tumor growth inhibition is calculated by 100*(1−Tv/Cv) where Tv and Cv are the mean tumor volumes of the treated and control groups, respectively. […] TGD is calculated by 100*(Tt/Ct−1) where Tt and Ct are the median time periods to reach 1 cm^3 of the treated and control groups, respectively.

Test [2] relates to NCI-H460 human lung carcinoma xenograft. As to the kind of experiment: NCI-H460 xenograft tumor growth inhibition, with or without docetaxel. In kind it is in vivo, mouse. As to conditions: QDx1, Ab095 8 IP, docetaxel 7.5 IV, ADC 10 mg/kg/day IP. The protocol: as §1, §2

Regarding `CC(=O)O[C@@]12CO[C@@H]1C[C@H](O)[C@@]1(C)C(=O)[C@H](O)C3=C(C)[C@@H](OC(=O)[C@H](O)[C@@H](NC(=O)OC(C)(C)C)c4ccccc4)C[C@@](O)([C@@H](OC(=O)c4ccccc4)[C@H]21)C3(C)C` [Docetaxel, docetaxel, reference compound], the TGD in test [1] is recorded as 80%; in test [2], 30%. The TGImax was found to be 62% in test [1] and 35% in test [2].
